Laboratory results reported in PubChem BioAssay (NCI).
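Protocol summary: plate cells (96-well), add compound at 5 concentrations, incubate 48 h, interpolate endpoints linearly. Definition used: TGI = concentration required for complete inhibition of growth.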 Where a SMILES comes first, the peptide text is derived from it. [ ]: non-standard residue; d: D form. The star is where a group is joined. NMeV = CN[C@H](C(=O)O)C(C)C; X29 = COc1ccc(CN*)c(OC)c1; Octanoyl = CCCCCCCC(=O)*; dNMeA = CN[C@H](C)C(=O)O

Assays:
Assay in all cases: NCI-60 cell line screen, 48 h
HOP-62 NSCLC = tested on: HOP-62 NSCLC
DU-145 prostate = tested on: DU-145 prostate
MDA-MB-231 breast = tested on: MDA-MB-231 breast
RPMI-8226 leukemia = tested on: RPMI-8226 leukemia
MDA-N = tested on: MDA-N
SF-539 CNS = tested on: SF-539 CNS
OVCAR-3 ovarian = tested on: OVCAR-3 ovarian
CCRF-CEM leukemia = tested on: CCRF-CEM leukemia
NCI-H460 lung = tested on: NCI-H460 lung
BT-549 breast = tested on: BT-549 breast
A549 NSCLC = tested on: A549 NSCLC
NCI-H23 lung = tested on: NCI-H23 lung
SF-268 CNS = tested on: SF-268 CNS
OVCAR-4 ovarian = tested on: OVCAR-4 ovarian
786-0 renal = tested on: 786-0 renal
OVCAR-5 ovarian = tested on: OVCAR-5 ovarian
SN12C renal = tested on: SN12C renal
SW-620 colon = tested on: SW-620 colon
K-562 leukemia = tested on: K-562 leukemia
SR leukemia = tested on: SR leukemia

Row | Structure (SMILES) | TGI (HOP-62 NSCLC) [µM] | TGI (DU-145 prostate) [µM] | TGI (MDA-MB-231 breast) [µM] | TGI (RPMI-8226 leukemia) [µM] | TGI (MDA-N) [µM] | TGI (SF-539 CNS) [µM] | TGI (OVCAR-3 ovarian) [µM] | TGI (CCRF-CEM leukemia) [µM] | TGI (NCI-H460 lung) [µM] | TGI (BT-549 breast) [µM] | TGI (A549 NSCLC) [µM] | TGI (NCI-H23 lung) [µM] | TGI (SF-268 CNS) [µM] | TGI (OVCAR-4 ovarian) [µM] | TGI (786-0 renal) [µM] | TGI (OVCAR-5 ovarian) [µM] | TGI (SN12C renal) [µM] | TGI (SW-620 colon) [µM] | TGI (K-562 leukemia) [µM] | TGI (SR leukemia) [µM]
1 | COC1/C=C/C(C)C(C(C)C(OC)C(C)CCC(=O)C(C)C(C/C=C/N(C)C=O)OC)OC(=O)C=CC2OC2(C)CC(OC)C(OC)C2=CC(=O)O[C@@H](C(C)C(OC)CC(OC)/C=C/C(C)C(O)C1)[C@H]2O (some centres not stated) | 0.0227 | 0.199 | 0.0197 | > 1.24 | 0.103 | 0.00742 | 0.0341 | > 1.24 | > 0.351 | 0.0907 | 0.0384 | > 0.322 | 0.0186 | > 1.24 | 0.0176 | 0.0464 | 0.0342 | – | – | –
2 | Cc1ccccc1-n1c(=O)c2ncn(C3CCCO3)c2n(-c2ccccc2C)c1=S (configuration not stated) | > 100 | > 100 | > 100 | > 100 | > 100 | > 100 | > 100 | > 100 | – | > 100 | > 100 | > 100 | > 100 | – | > 100 | > 100 | > 100 | > 100 | > 100 | –
3 | COCc1nc(N)nc(N2N=C(C)CC2(C)C)n1 | > 100 | > 100 | > 100 | > 100 | – | > 100 | > 100 | > 100 | > 100 | > 100 | > 100 | > 100 | > 100 | > 100 | > 100 | > 100 | > 100 | > 100 | > 100 | > 100
4 | CCCCCCCC(=O)N[C@H](C(=O)N[C@H](C(=O)N(C)[C@H](C(=O)N1CCC[C@H]1C(=O)N(C)[C@H](C)C(=O)NCc1ccc(OC)cc1OC)C(C)C)C(C)C)C(C)C (Octanoyl-VV[NMeV]P[dNMeA]-X29) | > 100 | > 100 | 35.5 | > 26.3 | – | > 60.4 | > 100 | > 72.9 | > 100 | > 61.2 | 99 | > 82.4 | > 100 | > 79.9 | > 100 | > 100 | > 100 | > 100 | > 100 | > 65.6
5 | COc1cc2c3c(c1)CCCN3CCC2 | > 10 | > 10 | > 10 | > 10 | > 10 | > 10 | > 10 | > 10 | > 10 | – | > 10 | > 10 | > 10 | > 10 | > 10 | – | > 10 | > 10 | > 10 | > 10
6 | CCOC(=O)C1=NOC2(C=C(Br)C(=O)C(Br)=C2)C1 | 16.2 | 17.8 | 21.9 | 2.56 | 3.39 | 20.2 | – | – | 15 | 17.8 | 59 | 9.41 | 29.1 | – | 1.76 | 12.6 | 19.6 | 2.77 | 6.42 | –
7 | CC1(C)C=Cc2c(cc(O)c3c(=O)c4cc(Cl)ccc4[nH]c23)O1 | > 10 | – | > 10 | 6.27 | 8.58 | > 10 | 3.01 | > 10 | > 10 | 8.06 | > 10 | 6.54 | > 10 | > 10 | > 10 | 6.16 | > 10 | > 10 | > 10 | > 10
8 | O=c1[nH]cc(-c2c[nH]c3ccccc23)nc1-c1c[nH]c2ccccc12 | 27.3 | 28.1 | 89.2 | 43.8 | 9.44 | 55.5 | 23.3 | – | 43.4 | 28.7 | > 100 | 31.5 | 27.9 | 43.3 | 23.5 | 27.6 | 33.4 | 18.1 | 9.21 | –
9 | C=CC[C@@H](N)C(=O)N(C)[C@@H](C)[C@@H](O)c1ccccc1 | > 100 | > 100 | > 100 | – | > 100 | > 100 | > 100 | > 100 | > 100 | > 100 | > 100 | > 100 | > 100 | > 100 | > 100 | – | – | > 100 | – | –
10 | CC1=NNC(=O)C1C1CC(c2c[nH]c3ccccc23)=NNC1=O (configuration not stated) | > 100 | > 100 | > 100 | > 100 | > 100 | > 100 | > 100 | > 100 | > 100 | > 100 | > 100 | > 100 | > 100 | – | > 100 | > 100 | > 100 | > 100 | > 100 | –
11 | N#CC1C(=O)NC23CCCCC2C1c1ccccc1O3 (configuration not stated) | > 100 | > 100 | > 100 | > 100 | > 100 | – | > 100 | > 100 | > 100 | > 100 | > 100 | > 100 | > 100 | > 100 | > 100 | > 100 | – | > 100 | > 100 | –
12 | C=C(Br)CNC(=O)Nc1ccc(Cl)c(Cl)c1 | 48.1 | 89.5 | 32.9 | 50.7 | > 100 | 39 | 38.8 | 45.1 | > 100 | – | 66 | 39.6 | 91.9 | > 100 | 36 | 92.4 | 82.7 | > 100 | 90.5 | 62.9
13 | O=S1(=O)OCCOS(=O)(=O)C1(F)Br | > 100 | > 100 | – | > 100 | > 100 | > 100 | > 100 | > 100 | – | – | > 100 | > 100 | > 100 | > 100 | > 100 | > 100 | > 100 | > 100 | > 100 | > 100
14 | CCOC(=O)C1C(c2ccc3c(c2)OCO3)c2c([nH][nH]c2=O)CC1(C)O (configuration not stated) | > 100 | > 100 | > 100 | > 100 | > 100 | > 100 | > 100 | > 100 | > 100 | – | > 100 | > 100 | > 100 | > 100 | > 100 | > 100 | > 100 | > 100 | – | > 100
15 | NC(N)=NCCCC(NC(=O)c1cccc2c(=O)c3ccccc3[nH]c12)C(=O)O (configuration not stated) | > 100 | > 100 | > 100 | > 100 | > 100 | – | > 100 | > 100 | – | – | > 100 | > 100 | > 100 | > 100 | > 100 | > 100 | > 100 | > 100 | > 100 | > 100
16 | O=[N+]([O-])c1cccc2nnccc12 | – | > 100 | – | > 100 | 34.5 | > 100 | – | – | 42.2 | > 100 | > 100 | > 100 | > 100 | – | 50.4 | > 100 | > 100 | > 100 | > 100 | –
17 | CSc1nc2c(c(=O)[nH]1)N=C(c1ccc([N+](=O)[O-])cc1)CC(c1ccccc1)N2 (configuration not stated) | > 100 | > 100 | 78.8 | 57.5 | > 100 | 76.2 | > 100 | > 100 | – | > 100 | > 100 | > 100 | – | > 100 | > 100 | > 100 | > 100 | 91.7 | > 100 | > 100
18 | CN(C)c1ccc(NN=C2SC(=Nc3ccccc3)C(=Nc3ccccc3)S2)cc1 | > 100 | > 100 | – | > 100 | > 100 | > 100 | – | > 100 | > 100 | – | > 100 | > 100 | > 100 | > 100 | > 100 | > 100 | > 100 | > 100 | – | –
19 | CC(=O)c1ccc2c(c1)CC1(C2)Cc2cc3c(cc2C1=O)CCC3 (configuration not stated) | 81.3 | 61.9 | 49.6 | 35.2 | 32.9 | 72.4 | 40.6 | 59.2 | 76.3 | – | 59.5 | 89.1 | 88 | 48 | 63.1 | 83 | 57.3 | > 100 | > 100 | 16.7
20 | CC(=O)C1C(=O)C(=O)N(c2cccc([N+](=O)[O-])c2)C1=O (configuration not stated) | > 100 | > 100 | > 100 | – | > 100 | > 100 | > 100 | > 100 | > 100 | > 100 | > 100 | > 100 | > 100 | > 100 | > 100 | > 100 | > 100 | > 100 | – | –
21 | O=C(CCCN1CCC2(CC1)CC(c1ccccc1)OC2=O)c1ccc(F)cc1 (configuration not stated) | 73.7 | > 100 | > 100 | 51.3 | > 100 | 53.1 | > 100 | > 100 | > 100 | – | > 100 | > 100 | > 100 | > 100 | 67.5 | > 100 | > 100 | > 100 | 65.8 | 40.1
22 | O=C(NNCC(O)COc1ccccc1)c1ccccc1 (configuration not stated) | > 100 | > 100 | > 100 | > 100 | > 100 | > 100 | > 100 | > 100 | – | – | > 100 | > 100 | – | > 100 | > 100 | > 100 | > 100 | > 100 | > 100 | –
23 | CCOC(=O)/C(C=Nc1c(C)n(C)n(-c2ccccc2)c1=O)=C(/C)O | – | > 100 | > 100 | > 100 | > 100 | > 100 | > 100 | > 100 | – | > 100 | > 100 | > 100 | – | > 100 | > 100 | > 100 | > 100 | > 100 | > 100 | > 100
24 | COc1c(F)c(F)c(/C(O)=C\c2nc3ccccc3[nH]c2=O)c(F)c1F | > 10 | > 10 | > 10 | > 10 | > 10 | – | – | > 10 | – | – | > 10 | > 10 | > 10 | 4.94 | 5.99 | – | > 10 | > 10 | > 10 | > 10
25 | CC1CC(C)C(C#N)N(C)c2ccccc21 (configuration not stated) | > 100 | > 100 | > 100 | > 100 | > 100 | > 100 | > 100 | > 100 | > 100 | – | > 100 | > 100 | > 100 | > 100 | > 100 | > 100 | > 100 | > 100 | > 100 | 92.2
26 | NC(N)=NCC[C@H](NC(=O)OCCCCCn1ccc(=O)[nH]c1=O)C(=O)O | > 100 | > 100 | > 100 | > 100 | > 100 | > 100 | > 100 | > 100 | > 100 | > 100 | > 100 | > 100 | > 100 | > 100 | > 100 | > 100 | > 100 | > 100 | > 100 | –
